Data as given in patent publication US20250195645A1, “COMBINATION OF MULTISPECIFIC MOLECULE AND IMMUNE CHECKPOINT INHIBITOR” (DAIICHI SANKYO COMPANY, LIMITED, priority 2022, published 2025).

Legend:
[1] = system: human synovial sarcoma cell line SW982; experiment: In vivo combinatorial effect of NYZ-1010 and doxorubicin, human T cell transfer model; conditions: NSG mice
Method: The administration was carried out on Day 41 (NYZ-1010) or on Days 40 and 47 (doxorubicin). Tumor growth inhibition (%) and change from baseline (%) were calculated according to the expressions given below.

[2] = system: human lung adenocarcinoma cell line NCI-H522; experiment: In vivo combinatorial effect of NYZ-1010 and durvalumab, human T cell transfer model; conditions: NSG mice
[3] = system: human lung adenocarcinoma cell line NCI-H522; experiment: In vivo combinatorial effect of NYZ-1010 and pembrolizumab, human T cell transfer model; conditions: 53 days after tumor inoculation; NSG mice; NYZ-1010 0.01 mg/kg Days 25, 32, 39; pembrolizumab 10 mg/kg Days 28, 32, 35, 39, 42
Method: Tumor growth inhibition (%) was calculated according to the following equation.

[4] = system: human esophageal cancer cell line OE-19; experiment: In vivo combinatorial effect of NYZ-1010 and sacituzumab govitecan-hziy, human T cell transfer model; conditions: NSG mice
Method: The administration was carried out on Day 7 (NYZ-1010) or on days 6 and 13 (sacituzumab govitecan-hziy). Tumor growth inhibition (%) and change from baseline (%) were calculated according to the expressions given below.

COc1cccc2c1C(=O)c1c(O)c3c(c(O)c1C2=O)C[C@@](O)(C(=O)CO)C[C@@H]3O[C@H]1C[C@H](N)[C@H](O)[C@H](C)O1 [doxorubicin]
TGI (tumor growth inhibition) ([1]; 55 days after inoculation, NYZ-1010 0.01 mg/kg Day 41, doxorubicin 2.5 mg/kg Days 40 and 47): 25.6% | Change from baseline (%) ([1]; group average, tumor volume on Day 55 vs Day 40 baseline): 214.1 (n = 5) %

durvalumab: anti-PD-L1 antibody
TGI (tumor growth inhibition) ([2]; 49 days after inoculation, NYZ-1010 0.02 mg/kg Days 25 and 32, durvalumab 10 mg/kg intraperitoneally Days 28, 32, 35, 39): −0.8% | Change from baseline (%) ([2]; group average, tumor volume on Day 49 vs Day 24 baseline): 204.7 (n = 5) %

pembrolizumab: anti-PD-1 antibody
TGI (tumor growth inhibition) [3]: 3.1%

sacituzumab govitecan-hziy
TGI (tumor growth inhibition) ([4]; 21 days after inoculation, NYZ-1010 0.01 mg/kg Day 7, sacituzumab govitecan-hziy 25 mg/kg days 6 and 13): 35.4% | Change from baseline (%) ([4]; group average, tumor volume on Day 21 vs Day 6 baseline): 1027.8 (n = 5) %
